Measured values published in patent US8318792B2, “Therapeutic agent for amyotrophic lateral sclerosis” (Nippon Medical School Foundation, priority 2006, dated 2012).

What was measured:
G1H-G93A transgenic mice [1] = test: Exercise tolerance test: inclined plane test; format: in vivo, mouse; settings: for Inclined plane test score: 5 mg/kg oral daily from 80th day (before onset), score 0-3, 5 mg/kg; for effect in inclined plane test as compared to placebo group: 110th, 115th, 120th, 125th and 130th day, 5 mg/kg oral daily from 80th day after birth, Mann-Whitney's U test
Procedure: The following five kinds of exercise tolerance tests were conducted every fifth day from the 70th day after birth to evaluate the ability to exercise in the respective exercise tolerance tests. That is, the days for the exercise tolerance tests were every fifth days, such as the 70th day, 75th day, 80th day, 85th day and so on, after birth. The exercise tolerance tests were conducted throughout the survival period, and the post-mortem evaluation was based on the definitions of the following five kinds of exercise tolerance tests.
The apparatus used in the inclined plane test is an apparatus allowing a wooden board to be fixed at the respective angles of 45°, 65° and 80° from a horizontal plane. A mouse is placed in the posture of head-up position on the wooden board inclined at each angle and the mouse is allowed to maintain this position for 5 seconds without falling downward. In the evaluation method of the inclined plane test for each mouse, the number of seconds (TA seconds: 5 seconds or less) during which the position could be maintained without falling downward is measured at each of the angles (A) of 45°, 65° and 80°, and then the total sum value of the products of the angle (A) and the number of seconds (TA) during which the position could be maintained: Σ [Angle(A)×Time (TA)] is calculated. Since a normal mouse is capable of maintaining the position on the wooden board inclined to the respective angles for 5 seconds, the sum value of Σ [Angle(A)×Time (TA)] will be 80×5+65×5+45×5=950. The evaluation of the inclined plane test for the mouse was performed based on the following criteria: Score 0=950; Score 1=over 550 to less than 950; Score 2=over 225 to 550; and Score 3=225 and below. The post-mortem evaluation of the inclined plane test is defined as score 3.

G1H-G93A transgenic mice [2] = test: Histopathological study: number of spinal cord anterior horn cells; format: in vivo, mouse; settings: end stage; for difference to placebo group in number of spinal cord anterior horn cells (cervical, thoracic or lumbar segment): P>0.05, Mann-Whitney's U test; for number of spinal cord anterior horn cells in the cervical segment / number of spinal cord anterior horn cells in the lumbar segment / number of spinal cord anterior horn cells in the thoracic segment: per five HE sections, average±SD
Procedure: The mouse supplied to the experiment is anesthetized by intraperitoneal injection of pentobarbital sodium in an amount of 1 mL per kg of the mouse body weight. After confirming that the mouse is completely under anesthesia, laparotomy and thoracotomy are performed, and blood is completely removed from the visceral organs of the whole body by perfusion of physiological saline at 37° C. via the left ventricle and aorta. The complete removal of blood from the visceral organs of the whole body is carried out by confirming complete removal of the blood of the aorta in the thoracic part and abdominal part, mesenteric arteries, liver, kidneys, and small arteries on the surfaces of the stomach, small intestine and large intestine under direct visual inspection. Subsequently, perfusion of 50 mL of physiological saline at 37° C. is performed. Immediately thereafter, the perfusion is performed with a fixative (4% paraformaldehyde supplemented with 0.1 M cacodylate buffer, pH 7.4). The spinal cord is removed and re-fixed with the same fixative for 18 hours. After the fixation of spinal cord tissue, each spinal cord segments is cut out to examine the spinal cord tissue. For the detailed analyses of spinal cord tissues, two segments of the cervical spinal cord (upper and lower cervical segments), three segments of the thoracic spinal cord (upper, middle, and lower thoracic segments), and two segments of lumbar spinal cord (upper and lower lumbar segments) were cut out to provide seven segments in total. Each spinal cord segments are respectively embedded in paraffin to produce paraffin blocks, and then cut into paraffin sections having a thickness of 5 μm using a microtome. The paraffin sections are subjected to hematoxylin and eosin (HE) staining.
For a quantitative analysis, serial 25 paraffin sections having a thickness of 5 μm were produced in series from the respective segment paraffin blocks of the spinal cord, and the 1st section, 7th section, 13th section, 19th section and 25th section were selected and subjected to HE staining. Specifically, paraffin sections were selected such that one paraffin section was taken at a […], and 5 HE preparations were produced from a single spinal cord segments. Therefore, 10 HE preparations from two areas for the entire cervical spinal cord, 15 HE preparations from three areas for the entire thoracic spinal cord, and 10 HE preparations from two areas for the entire lumbar spinal cord, were produced.
In order to calculate the number of motor neurons in the anterior horn, all of the HE stained sections were observed under a light microscope (BX41: Olympus Corp., Tokyo, Japan) equipped with a 3CCD digital color camera system for the microscope (FX380: Olympus Corp., Tokyo, Japan). Subsequently, photographs of the anterior horn region (corresponding to VII, VIII and IX Rexed areas) in the HE stained sections of the respective myelomere tissues of the spinal cord were taken, and the images were analyzed using an image analysis-filing software (FLVFS-LS Ver. 1.12: Olympus Corp., Tokyo, Japan). In regard to the definition of the motor neuron in the anterior horn of spinal cord (spinal cord anterior horn cells), cells in the HE stained sections, which have a nucleus carrying a definite nucleolus and contain a cell body having a diameter of 25 μm or more, were selected as the spinal cord anterior horn cells (Klivenyi P, et al., Nature Med 1999; 5:347-351, Kong J & Xu Z, J Neurosci 1998; 18:3241-3250, and Stephens B, et al., Neuropathol Appl Neurobiol 2001; 27:352-361). Based on this definition, the number of spinal cord anterior horn cells was counted for each of the HE stained sections. The respective numbers of spinal cord anterior horn cells in the cervical spinal cord, thoracic spinal cord and lumbar spinal cord of one mouse was calculated from the total number of spinal cord anterior horn cells in five HE stained sections. […]

[3] = 5 mg/kg oral daily from 80th day after birth (before onset)
[4] = 5 mg/kg oral daily from the day of onset (after onset)

Row | Structure (SMILES) | Inclined plane test score (G1H-G93A transgenic mice [1]; 70th day after birth) | Inclined plane test score (G1H-G93A transgenic mice [1]; 75th day after birth) | Inclined plane test score (G1H-G93A transgenic mice [1]; 80th day after birth) | Inclined plane test score (G1H-G93A transgenic mice [1]; 85th day after birth) | Inclined plane test score (G1H-G93A transgenic mice [1]; 90th day after birth) | Inclined plane test score (G1H-G93A transgenic mice [1]; 95th day after birth) | Inclined plane test score (G1H-G93A transgenic mice [1]; 100th day after birth) | Inclined plane test score (G1H-G93A transgenic mice [1]; 105th day after birth) | Inclined plane test score (G1H-G93A transgenic mice [1]; 110th day after birth) | effect in inclined plane test as compared to placebo group (G1H-G93A transgenic mice [1]) | Inclined plane test score (G1H-G93A transgenic mice [1]; 115th day after birth) | Inclined plane test score (G1H-G93A transgenic mice [1]; 120th day after birth) | Inclined plane test score (G1H-G93A transgenic mice [1]; 125th day after birth) | Inclined plane test score (G1H-G93A transgenic mice [1]; 130th day after birth) | Inclined plane test score (G1H-G93A transgenic mice [1]; 135th day after birth) | Inclined plane test score (G1H-G93A transgenic mice [1]; 140th day after birth) | difference to placebo group in number of spinal cord anterior horn cells (cervical, thoracic or lumbar segment) (G1H-G93A transgenic mice [2]; [3]) | number of spinal cord anterior horn cells in the cervical segment (G1H-G93A transgenic mice [2]; [3]) | number of spinal cord anterior horn cells in the lumbar segment (G1H-G93A transgenic mice [2]; [3]) | number of spinal cord anterior horn cells in the thoracic segment (G1H-G93A transgenic mice [2]; [3]) | other results
1 | Cc1nc(-c2ccc(OCC(C)C)c(C#N)c2)sc1C(=O)O [compound (c), 2-[3-cyano-4-(2-methylpropoxy)phenyl]-4-methyl-5-thiazolecarboxylic acid] | 0.0±0.0 | 0.0±0.0 | 0.0±0.0 | 0.0±0.0 | 0.0±0.0 | 0.0±0.0 | 0.0±0.0 | 0.0±0.0 | 0.0±0.0 | significant effects | 0.1±0.3 | 0.8±0.6 | 1.2±0.8 | 2.3±0.7 | 2.9±0.3 | 3.0±0.0 | no significant difference | 5.2±4.3 | 4.1±3.8 | 1.6±1.7 | –
2 | CC(C)(C)COc1ccc(-n2cc(C(=O)O)cn2)cc1C#N [compound (a), 1-[3-cyano-4-(2,2-dimethylpropoxy)phenyl]-1H-pyrazole-4-carboxylic acid] | 0.0±0.0 | 0.0±0.0 | 0.0±0.0 | 0.0±0.0 | 0.0±0.0 | 0.0±0.0 | 0.0±0.0 | 0.0±0.0 | 0.0±0.0 | significant effects | 0.1±0.3 | 0.4±0.5 | 1.1±0.9 | 2.1±0.9 | 2.7±0.5 | 3.0±0.0 | no significant difference | 3.3±3.1 | 3.7±3.3 | 1.6±2.1 | difference to placebo group in number of spinal cord anterior horn cells (cervical, thoracic or lumbar segment) (G1H-G93A transgenic mice [2]; [4]): no significant difference; number of spinal cord anterior horn cells in the cervical segment (G1H-G93A transgenic mice [2]; [4]): 4.8±3.7; number of spinal cord anterior horn cells in the lumbar segment (G1H-G93A transgenic mice [2]; [4]): 4.1±4.4; number of spinal cord anterior horn cells in the thoracic segment (G1H-G93A transgenic mice [2]; [4]): 2.3±2.2
3 | N#Cc1cc(-c2n[nH]c(-c3ccncc3)n2)ccn1 [compound (b), 4-(5-pyridin-4-yl-1H-[1,2,4]triazol-3-yl)pyridine-2-carbonitrile] | 0.0±0.0 | 0.0±0.0 | 0.0±0.0 | 0.0±0.0 | 0.0±0.0 | 0.0±0.0 | 0.0±0.0 | 0.0±0.0 | 0.0±0.0 | significant effects | 0.1±0.3 | 0.6±0.7 | 1.4±0.7 | 2.3±0.7 | 2.9±0.3 | 3.0±0.0 | no significant difference | 4.6±2.0 | 5.3±2.7 | 1.9±1.7 | –
